Results taken from patent US11534441B2, “MAP4K1 inhibitors” (Blueprint Medicines Corporation, priority 2020, dated 2022).

Target: MAP4K1 (HPK1) (Homo sapiens (Human), UniProt Q92918)
Test: MAP4K1 (HPK1) biochemical enzymatic activity, electrophoretic mobility shift (EZReader 2), ATP at APPKM (26 μM)
From the text: MAP4K1 (HPK1) and relevant off-target enzymatic activity was monitored using the Perkin Elmer electrophoretic mobility shift technology platform—the EZReader 2. […] Within the linear, steady-state phase of the kinase enzymatic reaction, the mixed pool of phosphorylated (product) and non-phosphorylated (substrate) peptides was passed through the microfluidic system of the PerkinElmer EZ Reader 2, under an applied electric potential difference. The presence of the phosphate group on the product peptide provided a difference in mass and charge between that of the substrate peptide, resulting in a separation of the substrate and product pools in the sample (Perrin et al. 2010). As the product and substrate peptide mixture passes the lasers within the instrument, these pools are detected (λex=488 nm, λent=568 nm) and resolved as separate peaks. The ratio between these peaks reflects the activity of the compound at that concentration, in that well, under those conditions.
Inhibitors were dissolved in 100% DMSO at a stock concentration of 10 mM. A 100×, 10-point, 4-fold serial dilution of each inhibitor was created in 100% DMSO either manually or on a Hamilton STAR liquid handler, starting at a relevant concentration, usually 1 mM. A volume of 0.130 μL of each concentration was transferred to the relevant wells of a 384-well plate (Greiner 781 201) in duplicate using a TTPLabtech Mosquito nano-litre dispenser. Using a Multidrop Combi, the remaining constituents of the kinase reaction were added to the 130 nL of dosed compound as follows (see table below for final reaction details):
Enzyme activity assays at the ^APPKM for ATP or 1 mM ATP: In each well of a 384-well plate, 0.1-15 nM of untreated enzyme was incubated in a total of 13 μL of buffer (100 mM HEPES pH 7.5, 0.015% Brij 35, 10 mM MgCl2, 1 mM DTT) with 1.5 μM fluorescent peptid and 20-1000 μM ATP, at 25° C., for 60-180 minutes in the presence or absence of a dosed concentration series of compound (1% DMSO final concentration). The kinase reactions were stopped by the addition of 70 μl of Stop buffer (100 mM HEPES pH 7.5, 0.015% Brij 35, 35 mM EDTA and 0.2% of Coating Reagent 3 (Caliper Lifesciences)). The plates were read on a Caliper EZReader 2 as described above.

MAP4K1 (HPK1), sequence (Q92918 whole entry): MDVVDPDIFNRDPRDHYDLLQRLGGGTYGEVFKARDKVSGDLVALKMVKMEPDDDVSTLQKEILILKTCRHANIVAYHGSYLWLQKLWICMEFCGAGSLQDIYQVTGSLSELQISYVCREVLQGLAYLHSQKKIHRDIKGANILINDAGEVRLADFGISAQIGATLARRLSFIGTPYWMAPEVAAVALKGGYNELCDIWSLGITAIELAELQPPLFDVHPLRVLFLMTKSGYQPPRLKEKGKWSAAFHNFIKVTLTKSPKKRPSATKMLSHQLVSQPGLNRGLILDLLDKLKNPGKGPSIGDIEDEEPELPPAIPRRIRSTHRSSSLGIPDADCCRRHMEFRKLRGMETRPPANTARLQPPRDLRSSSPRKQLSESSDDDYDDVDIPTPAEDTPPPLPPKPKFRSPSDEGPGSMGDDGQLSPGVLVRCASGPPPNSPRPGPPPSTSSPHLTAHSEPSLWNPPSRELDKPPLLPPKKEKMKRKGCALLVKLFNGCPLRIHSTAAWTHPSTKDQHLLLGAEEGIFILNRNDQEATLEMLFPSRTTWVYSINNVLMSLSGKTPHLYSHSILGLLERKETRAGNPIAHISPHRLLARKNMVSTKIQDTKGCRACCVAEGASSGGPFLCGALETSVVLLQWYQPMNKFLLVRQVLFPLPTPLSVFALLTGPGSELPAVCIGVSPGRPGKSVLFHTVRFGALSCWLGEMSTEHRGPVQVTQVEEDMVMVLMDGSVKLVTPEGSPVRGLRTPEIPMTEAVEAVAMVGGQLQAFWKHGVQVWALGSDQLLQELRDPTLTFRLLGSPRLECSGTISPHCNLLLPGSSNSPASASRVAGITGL

Structure (SMILES) | IC50 (class designation) | IC50 (numeric value)
C[C@@H]1OC(=O)c2ccc(Nc3cc4c([C@](C)(N)C5CC5)cnc(OC5(C)CC5)c4cn3)nc2[C@H]1C [Compound 89] | 1.1 to 10 nM | 5.12 nM
C[C@@H]1c2nc(Nc3cc4c([C@@](C)(N)C5CC5)cnc(OC5(C)CC5)c4cn3)ccc2C(=O)OC1(C)C [Compound 90] | 1.1 to 10 nM | 3.42 nM
CC[C@@](C)(N)c1cnc(OC2(C)CC2)c2cnc(Nc3ccc4c(n3)[C@@H](C)[C@@H](C)OC4=O)cc12 [Compound 93] | 1.1 to 10 nM | 3.65 nM
C[C@@H]1c2nc(Nc3cc4c([C@@](C)(N)C5CC5)cnc(OC5(C)CC5)c4cn3)ccc2C(=O)O[C@@H]1C [Compound 95] | 1.1 to 10 nM | 4.54 nM
COc1ncc([C@@](C)(N)C2CC2)c2cc(Nc3ccc4c(n3)C(C)(C)OC4=O)ncc12 [Compound 98] | > 10 nM | 19.1 nM
CC1(C)Cc2nc(Nc3cc4c(C(C)(C)N)ccc(Cl)c4cn3)ccc2C(=O)O1 [Compound 104, 2-((5-(2-Aminopropan-2-yl)-8-chloroisoquinolin-3-yl)amino)-7,7-dimethyl-7,8-dihydro-5H-pyrano[4,3-b]pyridin-5-one] | < 0.3 nM | 0.13 nM
CC(C)(N)c1cnc(OC2CC2)c2cnc(Nc3ccc4c(n3)C3(CC3)COC4=O)cc12 [Compound 107] | 0.31 to 1 nM | 0.62 nM
C[C@H]1OC(=O)c2ccc(Nc3cc4c(C(C)(C)N)cnc(OC5CC5)c4cn3)nc2C12CC2 [Compound 119] | < 0.3 nM | 0.12 nM
C[C@@H]1OC(=O)c2ccc(Nc3cc4c(C(C)(C)N)cnc(OC5CC5)c4cn3)nc2C12CC2 [Compound 120] | 0.31 to 1 nM | 0.5 nM
CC[C@](C)(N)c1cnc(NC2CC2)c2cnc(Nc3ccc4c(n3)[C@@H](C)[C@H](C)OC4=O)cc12 [Compound 122] | < 0.3 nM | 0.16 nM
CC1(C)CCc2nc(Nc3cc4c(C(C)(C)N)cnc(OC5CC5)c4cn3)ccc2C(=O)O1 [Compound 125] | 1.1 to 10 nM | 1.84 nM
CC[C@H]1c2nc(Nc3cc4c(C(C)(C)N)cnc(OC5CC5)c4cn3)ccc2C(=O)O[C@H]1C [Compound 128] | 1.1 to 10 nM | 1.09 nM
CC[C@@](C)(N)c1cnc(OC2CC2)c2cnc(Nc3ccc4c(n3)[C@](C)(CC)OC4=O)cc12 [Compound 129] | < 0.3 nM | 0.11 nM
CC[C@H]1OC(=O)c2ccc(Nc3cc4c(C(C)(C)N)cnc(OC5CC5)c4cn3)nc2[C@@H]1C [Compound 130] | 0.31 to 1 nM | 0.46 nM
CC[C@@H]1OC(=O)c2ccc(Nc3cc4c(C(C)(C)N)cnc(OC5CC5)c4cn3)nc2[C@H]1C [Compound 134] | 1.1 to 10 nM | 1.33 nM
C[C@@H]1OC(=O)c2ccc(Nc3cc4c(C(C)(C)N)cnc(OC5CC5)c4cn3)nc2C1(C)C [Compound 137] | 0.31 to 1 nM | 0.46 nM
CCCOc1ncc([C@](C)(N)CC)c2cc(Nc3ccc4c(n3)[C@@H](C)[C@H](C)OC4=O)ncc12 [Compound 142] | < 0.3 nM | 0.2 nM
CCCOc1ncc([C@](C)(N)CC)c2cc(Nc3ccc4c(n3)CC(C)(C)OC4=O)ncc12 [Compound 143] | 0.31 to 1 nM | 0.31 nM
CCCOc1ncc([C@@](C)(N)CC)c2cc(Nc3ccc4c(n3)CC(C)(C)OC4=O)ncc12 [Compound 144] | 1.1 to 10 nM | 3.89 nM
CCCOc1ncc([C@@](C)(N)CC)c2cc(Nc3ccc4c(n3)[C@@H](C)[C@H](C)OC4=O)ncc12 [Compound 145] | 1.1 to 10 nM | 1.77 nM
C[C@@H]1OC(=O)c2ccc(Nc3cc4c([C@](C)(N)C5CC5)cnc(NC5CC5)c4cn3)nc2[C@H]1C [Compound 149] | < 0.3 nM | 0.2 nM
C[C@@H]1OC(=O)c2ccc(Nc3cc4c([C@@](C)(N)C5CC5)cnc(NC5CC5)c4cn3)nc2[C@H]1C [Compound 150] | 1.1 to 10 nM | 5.24 nM

Structure (SMILES) | IC50 (class designation) | IC50 (numeric value)
COc1ncc(C(C)(C)NC2CCC2)c2cc(Nc3ccc4c(n3)CC(C)(C)OC4=O)ncc12 [Compound 158, 2-((5-(2-(Cyclobutylamino)propan-2-yl)-8-methoxy-2,7-naphthyridin-3-yl)amino)-7,7-dimethyl-7,8-dihydro-5H-pyrano[4,3-b]pyridin-5-one] | 1.1 to 10 nM | 6.46 nM
C[C@@H]1OC(=O)c2ccc(Nc3cc4c(C(C)(C)N)cnc(O[C@@H]5CCOC5)c4cn3)nc2[C@H]1C [Compound 160] | 1.1 to 10 nM | 1.25 nM
C[C@@H]1OC(=O)c2ccc(Nc3cc4c(C(C)(C)N)cnc(O[C@H]5C[C@H](F)C5)c4cn3)nc2[C@H]1C [Compound 161] | 1.1 to 10 nM | 1.37 nM
C[C@@H]1OC(=O)c2ccc(Nc3cc4c(C(C)(C)N)cnc(OCC5(F)CC5)c4cn3)nc2[C@H]1C [Compound 162] | < 0.3 nM | 0.24 nM
C[C@@H]1OC(=O)c2ccc(Nc3cc4c(C(C)(C)N)cnc(O[C@H]5C[C@@H](F)C5)c4cn3)nc2[C@H]1C [Compound 163] | < 0.3 nM | 0.25 nM
CC1(C)Cc2nc(Nc3cc4c([C@@](C)(N)C5CCC5)cnc(OC5CC5)c4cn3)ccc2C(=O)O1 [Compound 169] | 1.1 to 10 nM | 
CC1(C)Cc2nc(Nc3cc4c(C(C)(C)NCCO)cnc(OC5CC5)c4cn3)ccc2C(=O)O1 [Compound 177, 2-((8-Cyclopropoxy-5-(2-((2-hydroxyethyl)amino)propan-2-yl)-2,7-naphthyridin-3-yl)amino)-7,7-dimethyl-7,8-dihydro-5H-pyrano[4,3-b]pyridin-5-one] | 1.1 to 10 nM | 6.52 nM
CC1(Oc2ncc([C@](C)(N)C3CC3)c3cc(Nc4ccc5c(n4)C(C)(C)COC5=O)ncc23)CC1 [Compound 185] | 0.31 to 1 nM | 0.35 nM
C[C@@H]1OC(=O)c2ccc(Nc3cc4c(C(C)(C)N)cnc(OC5(C)CC5)c4cn3)nc2C1(C)C [Compound 186] | 0.31 to 1 nM | 0.4 nM
CC[C@](C)(N)c1cnc(OC2CC2)c2cnc(Nc3ccc4c(n3)C3(CC3)[C@H](C)OC4=O)cc12 [Compound 187] | < 0.3 nM | 0.06 nM
COC[C@@](C)(N)c1cnc(OC2CC2)c2cnc(Nc3ccc4c(n3)[C@H](C)[C@H](C)OC4=O)cc12 [Compound 190] | < 0.3 nM | 0.19 nM
CC[C@@H](N)c1cnc(OC2(C)CC2)c2cnc(Nc3ccc4c(n3)[C@@H](C)C(C)(C)OC4=O)cc12 [Compound 191] | 0.31 to 1 nM | 0.53 nM
CC(C)(N)c1cnc(OC2CC2)c2cnc(Nc3ccc4c(n3)C3(CC3)C(C)(C)OC4=O)cc12 [Compound 195] | < 0.3 nM | 0.27 nM
C[C@@H]1OC(=O)c2ccc(Nc3cc4c(C(C)(C)N)cnc(OC5(C)COC5)c4cn3)nc2[C@H]1C [Compound 197] | 0.31 to 1 nM | 0.34 nM
CC1(Oc2ncc(C(C)(C)N)c3cc(Nc4cnc5c(c4)C(=O)C(C)(C)OC5=O)ncc23)COC1 [Compound 198] | < 0.3 nM | 0.27 nM
CC1(Oc2ncc(C(C)(C)N)c3cc(Nc4ccc5c(n4)C4(CC4)C(C)(C)OC5=O)ncc23)CC1 [Compound 199] | 0.31 to 1 nM | 0.36 nM
COC[C@@](C)(N)c1cnc(OC2CC2)c2cnc(Nc3ccc4c(n3)CC(C)(C)OC4=O)cc12 [Compound 200] | 0.31 to 1 nM | 0.48 nM
COC[C@@](C)(N)c1cnc(OC)c2cnc(Nc3ccc4c(n3)[C@@H](C)C(C)(C)OC4=O)cc12 [Compound 201] | < 0.3 nM | 0.14 nM
CC[C@@H](N)c1cnc(C)c2cnc(Nc3ccc4c(n3)[C@@H](C)[C@H](C)OC4=O)cc12 [Compound 202] | 0.31 to 1 nM | 0.62 nM
CC[C@@H](N)c1cnc(OC)c2cnc(Nc3ccc4c(n3)[C@@H](C)[C@H](C)OC4=O)cc12 [Compound 203] | 0.31 to 1 nM | 0.5 nM
COC[C@@](C)(N)c1cnc(C)c2cnc(Nc3ccc4c(n3)[C@@H](C)C(C)(C)OC4=O)cc12 [Compound 206] | < 0.3 nM | 0.19 nM
CC[C@@H](N)c1ccc(Cl)c2cnc(Nc3ccc4c(n3)[C@@H](C)C(C)(C)OC4=O)cc12 [Compound 209] | 0.31 to 1 nM | 
